What was measured:
[1] = test system: PS-2 splicing variant lacking exon 5; experiment: Effect of drug on induction of expression of PS-2 splicing variants in human nerve cells under hypoxic conditions (RT-PCR, gel electrophoresis); type: cell-based; settings: human neuroblastoma SK-N-SH cells, low oxygen 16 hours; cycloheximide 0.2 or 1 μg/ml, N-acetyl-L-cysteine 2 or 10 μM, diphenylene iodonium chloride 5 or 20 μM; FIG. 5
[2] = test system: PS-2 splicing variants (5′-terminal fragment); experiment: Detection of PS-2 splicing variants in human nerve cells after β-amyloid stimulation or hydrogen peroxide addition (RT-PCR, gel electrophoresis); type: cell-based; settings: SK-N-SH cells; Aβ25-35 0.5 or 5 μM for 16 hours; H2O2 44 or 440 μM for 2 hours; FIG. 2
Procedure: After culturing human neuroblastoma SK-N-SH cells (ATCC HTB-11) in α-MEM medium (α-Minimum Essential Medium; available from GIBCO CO.) containing 10% fetal bovine serum in a 10 cm diameter culture plates at 37° C. for about 48 hours in a CO2 incubator to a confluent state, the medium was replaced with the same medium not containing fetal bovine serum followed by additional culturing for about 2 hours.
The above cultured cells were additionally cultured under the conditions (i) to (iv) indicated below (culturing was continued for an additional 16 hours under the same conditions as above for the control).
(iii) β-amyloid stimulation: Aβ25-35 (available from Sigma Co.) was added to the medium to a final concentration of 0.5 μM or 5 μM followed by incubating for 16 hours. […]
Using, the RNA (total RNA, 1 μg) obtained in section (1) above as template, this RNA was allowed to react for 1 hour at 42° C. in 0.05 ml of a buffer (0.05 M Tris-HCl, pH 8.3, 0.075 MN KCl, 0.003 M MgCl2, DTT and 0.0002 M deoxynucleotides) containing oligo dT primer (50 pmole), random oligonucleotide (5 pmole) and reverse transcriptase (available from Promega Co., Moloney leukaemia virus reverse transcriptase) (200 units) to synthesize single-strand cDNA. Using the resulting single-strand cDNA, splicing variants were detected by polymerase chain reaction (PCR) in the manner described below. […]

Row | Molecule | expression of a splicing variant lacking exon 5 induced by hypoxic treatment [1] | bands not observed in the control, PCR of the 5′-terminal fragment of PS-2 (induced splicing variants) [2]
1 | c1ccc2c(c1)[I+]c1ccccc1-2 [diphenylene iodonium chloride] | inhibited | –
2 | C[C@@H]1C[C@@H]([C@H](O)CC2CC(=O)NC(=O)C2)C(=O)[C@@H](C)C1 [cycloheximide] | inhibited | –
3 | CC(=O)N[C@@H](CS)C(=O)O [N-acetyl-L-cysteine] | inhibited | –
4 | β-amyloid: partial peptide consisting of the 25th to 35th amino acid residues of β-amyloid protein (GSNKGAIIGLM; Amyloid-beta protein 42; UniProt P05067 696-706, looked up, fragment) | – | two bands each not observed in the control
5 | OO [hydrogen peroxide] | – | three bands not observed in the control

Source: US6579679B1, “Method for examining central nervous system diseases and method for screening remedies” (Tanabe Seiyaku Co., Ltd., priority 1998, dated 2003)
